From patent publication EP0908457B1, “3-(1,2-benzisothiazol- and isoxazol-5-Y1)-2,4(1H,3H)-pyrimidinedione or thione and 3-(1,2-benzisothiazol- and isoxazol-5-y1)-4(3H)-pyrimidinone or thione herbicidal agents” (BASF AKTIENGESELLSCHAFT, priority 1997, dated 1999)

How the values were obtained:
[1] = system: Sagittaria pygmaea, L.; assay: Preemergence weed control under flooded paddy conditions, SAGPY (Arrowhead (Pygmaea)); type: in vivo; details: preemergence, flooded paddy, rated 3-4 weeks after treatment
[2] = system: Cyperus serotinus, Rottb.; assay: Preemergence weed control under flooded paddy conditions, CYPSE (Flatsedge); type: in vivo; details: preemergence, rated 3-4 weeks after treatment
[3] = system: Cyperus iria; assay: Preemergence weed control under flooded paddy conditions, CYPIR (Rice Flatsedge); type: in vivo; details: preemergence, flooded paddy, rated 3-4 weeks after treatment
[4] = system: Echinochloa oryzoides (Ard.) Fritsch.; assay: Preemergence weed control under flooded paddy conditions, ECHORC (Watergrass (Calif.)); type: in vivo; details: preemergence, flooded paddy, rated 3-4 weeks after treatment
[5] = system: Monochoria vaginalis, Presl.; assay: Preemergence weed control under flooded paddy conditions, MOOVA (Monochoria); type: in vivo; details: preemergence, flooded paddy, rated 3-4 weeks after treatment
[6] = system: Oryza sativa, (L.) Tebonnet; assay: Rice tolerance to post-transplant applications under flooded paddy conditions (Example 187), ORYSAT (Rice, Tebonnet); details: rated 3-4 weeks after treatment
Also: meaning of each grade not given here.

## CC(Oc1ccccc1-c1nsc2ccc(-n3c(=O)cc(C(F)(F)F)n(C)c3=O)cc12)C(=O)N(C)C (stereo not shown) [Example 551, Propionamide, 2-{o-{5-[3,6-dihydro-3-methyl-2,6-dioxo-4-(trifluoromethyl)-1(2H)-pyrimidinyl]-1,2-benzisothiazol-3-yl}phenoxy}-N,N-dimethyl-]
[1]; Rate 0.0620 kg/ha
  herbicidal effect rating, SAGPY: 0.0
[1]; Rate 0.1250 kg/ha
  herbicidal effect rating, SAGPY: 0.0
[1]; Rate 0.2500 kg/ha
  herbicidal effect rating, SAGPY: 0.0
[1]; Rate 0.5000 kg/ha
  herbicidal effect rating, SAGPY: 2.0
[2]; Rate 0.0620 kg/ha
  herbicidal effect rating, CYPSE: 0.0
[2]; Rate 0.1250 kg/ha
  herbicidal effect rating, CYPSE: 0.0
[2]; Rate 0.2500 kg/ha
  herbicidal effect rating, CYPSE: 0.0
[2]; Rate 0.5000 kg/ha
  herbicidal effect rating, CYPSE: 0.0
[3]; Rate 0.0620 kg/ha
  herbicidal effect rating, CYPIR: 0.0
[3]; Rate 0.1250 kg/ha
  herbicidal effect rating, CYPIR: 0.0
[3]; Rate 0.2500 kg/ha
  herbicidal effect rating, CYPIR: 2.0
[3]; Rate 0.5000 kg/ha
  herbicidal effect rating, CYPIR: 9.0
[4]; Rate 0.0620 kg/ha
  herbicidal effect rating, ECHORC: 4.0
[4]; Rate 0.1250 kg/ha
  herbicidal effect rating, ECHORC: 7.0
[4]; Rate 0.2500 kg/ha
  herbicidal effect rating, ECHORC: 7.0
[4]; Rate 0.5000 kg/ha
  herbicidal effect rating, ECHORC: 9.0
[5]; Rate 0.0620 kg/ha
  herbicidal effect rating, MOOVA: 0.0
[5]; Rate 0.1250 kg/ha
  herbicidal effect rating, MOOVA: 9.0
[5]; Rate 0.2500 kg/ha
  herbicidal effect rating, MOOVA: 9.0
[5]; Rate 0.5000 kg/ha
  herbicidal effect rating, MOOVA: 9.0
[6]; Rate 0.0620 kg/ha
  herbicidal effect rating ORYSAT: 0.0
[6]; Rate 0.1250 kg/ha
  herbicidal effect rating ORYSAT: 3.0
[6]; Rate 0.2500 kg/ha
  herbicidal effect rating ORYSAT: 3.0
[6]; Rate 0.5000 kg/ha
  herbicidal effect rating ORYSAT: 4.0

## CCCS(=O)(=O)NC(=O)COc1ccc(C)cc1-c1nsc2ccc(-n3c(=O)cc(C(F)(F)F)n(C)c3=O)cc12 [Example 552, Acetamide, 2-{{2-{5-[3,6-dihydro-3-methyl-2,6-dioxo-4-(trifluoromethyl)-1(2H)-pyrimidinyl]-1,2-benzisothiazol-3-yl}-p-tolyl}oxy}-N-(propylsulfonyl)-]
[1]; Rate 0.0320 kg/ha
  herbicidal effect rating, SAGPY: 0.0
[1]; Rate 0.0620 kg/ha
  herbicidal effect rating, SAGPY: 0.0
[1]; Rate 0.1250 kg/ha
  herbicidal effect rating, SAGPY: 0.0
[1]; Rate 0.2500 kg/ha
  herbicidal effect rating, SAGPY: 0.0
[1]; Rate 0.5000 kg/ha
  herbicidal effect rating, SAGPY: 5.0
[2]; Rate 0.0320 kg/ha
  herbicidal effect rating, CYPSE: 0.0
[2]; Rate 0.1250 kg/ha
  herbicidal effect rating, CYPSE: 4.0
[2]; Rate 0.2500 kg/ha
  herbicidal effect rating, CYPSE: 9.0
[2]; Rate 0.5000 kg/ha
  herbicidal effect rating, CYPSE: 9.0
[3]; Rate 0.0320 kg/ha
  herbicidal effect rating, CYPIR: 6.0
[3]; Rate 0.0620 kg/ha
  herbicidal effect rating, CYPIR: 8.0
[3]; Rate 0.1250 kg/ha
  herbicidal effect rating, CYPIR: 7.0
[3]; Rate 0.2500 kg/ha
  herbicidal effect rating, CYPIR: 9.0
[3]; Rate 0.5000 kg/ha
  herbicidal effect rating, CYPIR: 9.0
[4]; Rate 0.0320 kg/ha
  herbicidal effect rating, ECHORC: 2.6
[4]; Rate 0.0620 kg/ha
  herbicidal effect rating, ECHORC: 3.7
[4]; Rate 0.1250 kg/ha
  herbicidal effect rating, ECHORC: 4.7
[4]; Rate 0.2500 kg/ha
  herbicidal effect rating, ECHORC: 9.0
[4]; Rate 0.5000 kg/ha
  herbicidal effect rating, ECHORC: 9.0
[5]; Rate 0.0320 kg/ha
  herbicidal effect rating, MOOVA: 6.0
[5]; Rate 0.0620 kg/ha
  herbicidal effect rating, MOOVA: 8.0
[5]; Rate 0.1250 kg/ha
  herbicidal effect rating, MOOVA: 9.0
[5]; Rate 0.2500 kg/ha
  herbicidal effect rating, MOOVA: 9.0
[5]; Rate 0.5000 kg/ha
  herbicidal effect rating, MOOVA: 9.0
[6]; Rate 0.0320 kg/ha
  herbicidal effect rating ORYSAT: 4.0
[6]; Rate 0.0620 kg/ha
  herbicidal effect rating ORYSAT: 6.0
[6]; Rate 0.1250 kg/ha
  herbicidal effect rating ORYSAT: 6.0
[6]; Rate 0.2500 kg/ha
  herbicidal effect rating ORYSAT: 7.0
[6]; Rate 0.5000 kg/ha
  herbicidal effect rating ORYSAT: 4.0

## C=CS(=O)(=O)NC(=O)COc1ccc(C)cc1-c1nsc2ccc(-n3c(=O)cc(C(F)(F)F)n(C)c3=O)cc12 [Example 553, Acetamide, 2-{{2-{5-[3,6-dihydro-3-methyl-2,6-dioxo-4-(trifluoromethyl)-1(2H)-pyrimidinyl]-1,2-benzisothiazol-3-yl}-p-tolyl}oxy}-N-(vinylsulfonyl)-]
[1]; Rate 0.0320 kg/ha
  herbicidal effect rating, SAGPY: 0.0
[1]; Rate 0.0620 kg/ha
  herbicidal effect rating, SAGPY: 0.0
[1]; Rate 0.1250 kg/ha
  herbicidal effect rating, SAGPY: 0.0
[1]; Rate 0.2500 kg/ha
  herbicidal effect rating, SAGPY: 0.0
[1]; Rate 0.5000 kg/ha
  herbicidal effect rating, SAGPY: 0.0
[2]; Rate 0.0320 kg/ha
  herbicidal effect rating, CYPSE: 0.0
[2]; Rate 0.0620 kg/ha
  herbicidal effect rating, CYPSE: 0.0
[2]; Rate 0.2500 kg/ha
  herbicidal effect rating, CYPSE: 2.0
[2]; Rate 0.5000 kg/ha
  herbicidal effect rating, CYPSE: 9.0
[3]; Rate 0.0320 kg/ha
  herbicidal effect rating, CYPIR: 2.0
[3]; Rate 0.0620 kg/ha
  herbicidal effect rating, CYPIR: 6.0
[3]; Rate 0.1250 kg/ha
  herbicidal effect rating, CYPIR: 7.0
[3]; Rate 0.2500 kg/ha
  herbicidal effect rating, CYPIR: 9.0
[3]; Rate 0.5000 kg/ha
  herbicidal effect rating, CYPIR: 4.0
[4]; Rate 0.0320 kg/ha
  herbicidal effect rating, ECHORC: 1.3
[4]; Rate 0.0620 kg/ha
  herbicidal effect rating, ECHORC: 2.1
[4]; Rate 0.1250 kg/ha
  herbicidal effect rating, ECHORC: 6.4
[4]; Rate 0.2500 kg/ha
  herbicidal effect rating, ECHORC: 9.0
[4]; Rate 0.5000 kg/ha
  herbicidal effect rating, ECHORC: 7.0
[5]; Rate 0.0320 kg/ha
  herbicidal effect rating, MOOVA: 7.0
[5]; Rate 0.0620 kg/ha
  herbicidal effect rating, MOOVA: 9.0
[5]; Rate 0.1250 kg/ha
  herbicidal effect rating, MOOVA: 9.0
[5]; Rate 0.2500 kg/ha
  herbicidal effect rating, MOOVA: 9.0
[5]; Rate 0.5000 kg/ha
  herbicidal effect rating, MOOVA: 9.0
[6]; Rate 0.0320 kg/ha
  herbicidal effect rating ORYSAT: 3.0
[6]; Rate 0.0620 kg/ha
  herbicidal effect rating ORYSAT: 4.0
[6]; Rate 0.1250 kg/ha
  herbicidal effect rating ORYSAT: 4.0
[6]; Rate 0.2500 kg/ha
  herbicidal effect rating ORYSAT: 6.0
[6]; Rate 0.5000 kg/ha
  herbicidal effect rating ORYSAT: 4.0

## CCS(=O)(=O)NC(=O)COc1ccc(C)cc1-c1nsc2ccc(-n3c(=O)cc(C(F)(F)F)n(C)c3=O)cc12 [Example 554, Acetamide, 2-{{2-{5-[3,6-dihydro-3-methyl-2,6-dioxo-4-(trifluoromethyl)-1(2H)-pyrimidinyl)-1,2-benzisothiazol-3-yl}-p-tolyl}oxy}-N-(ethylsulfonyl)-]
[1]; Rate 0.0320 kg/ha
  herbicidal effect rating, SAGPY: 0.0
[1]; Rate 0.0620 kg/ha
  herbicidal effect rating, SAGPY: 0.0
[1]; Rate 0.1250 kg/ha
  herbicidal effect rating, SAGPY: 0.0
[1]; Rate 0.2500 kg/ha
  herbicidal effect rating, SAGPY: 9.0
[1]; Rate 0.5000 kg/ha
  herbicidal effect rating, SAGPY: 0.0
[2]; Rate 0.0320 kg/ha
  herbicidal effect rating, CYPSE: 0.0
[2]; Rate 0.0620 kg/ha
  herbicidal effect rating, CYPSE: 0.0
[2]; Rate 0.1250 kg/ha
  herbicidal effect rating, CYPSE: 4.0
[2]; Rate 0.2500 kg/ha
  herbicidal effect rating, CYPSE: 9.0
[2]; Rate 0.5000 kg/ha
  herbicidal effect rating, CYPSE: 9.0
[3]; Rate 0.0320 kg/ha
  herbicidal effect rating, CYPIR: 2.0
[3]; Rate 0.0620 kg/ha
  herbicidal effect rating, CYPIR: 7.0
[3]; Rate 0.1250 kg/ha
  herbicidal effect rating, CYPIR: 9.0
[3]; Rate 0.2500 kg/ha
  herbicidal effect rating, CYPIR: 9.0
[3]; Rate 0.5000 kg/ha
  herbicidal effect rating, CYPIR: 5.0
[4]; Rate 0.0320 kg/ha
  herbicidal effect rating, ECHORC: 3.0
[4]; Rate 0.0620 kg/ha
  herbicidal effect rating, ECHORC: 4.1
[4]; Rate 0.1250 kg/ha
  herbicidal effect rating, ECHORC: 5.7
[4]; Rate 0.2500 kg/ha
  herbicidal effect rating, ECHORC: 9.0
[4]; Rate 0.5000 kg/ha
  herbicidal effect rating, ECHORC: 7.0
[5]; Rate 0.0320 kg/ha
  herbicidal effect rating, MOOVA: 9.0
[5]; Rate 0.0620 kg/ha
  herbicidal effect rating, MOOVA: 9.0
[5]; Rate 0.1250 kg/ha
  herbicidal effect rating, MOOVA: 9.0
[5]; Rate 0.2500 kg/ha
  herbicidal effect rating, MOOVA: 9.0
[5]; Rate 0.5000 kg/ha
  herbicidal effect rating, MOOVA: 9.0
[6]; Rate 0.0320 kg/ha
  herbicidal effect rating ORYSAT: 4.0
[6]; Rate 0.0620 kg/ha
  herbicidal effect rating ORYSAT: 4.0
[6]; Rate 0.1250 kg/ha
  herbicidal effect rating ORYSAT: 6.0
[6]; Rate 0.2500 kg/ha
  herbicidal effect rating ORYSAT: 7.0
[6]; Rate 0.5000 kg/ha
  herbicidal effect rating ORYSAT: 6.0

## CC(C)S(=O)(=O)NC(=O)COc1ccccc1-c1nsc2ccc(-n3c(=O)cc(C(F)(F)F)n(C)c3=O)cc12 [Example 555, Acetamide, 2-{o-{5-[3,6-dihydro-3-methyl-2,6-dioxo-4-(trifluoromethyl)-1(2H)-pyrimidinyl)-1,2-benzisothiazol-3-yl}phenoxy}-N-(isopropylsulfonyl)-]
[1]; Rate 0.0320 kg/ha
  herbicidal effect rating, SAGPY: 0.0
[1]; Rate 0.0620 kg/ha
  herbicidal effect rating, SAGPY: 0.0
[1]; Rate 0.1250 kg/ha
  herbicidal effect rating, SAGPY: 2.0
[1]; Rate 0.2500 kg/ha
  herbicidal effect rating, SAGPY: 7.0
[1]; Rate 0.5000 kg/ha
  herbicidal effect rating, SAGPY: 0.0
[2]; Rate 0.0320 kg/ha
  herbicidal effect rating, CYPSE: 4.0
[2]; Rate 0.0620 kg/ha
  herbicidal effect rating, CYPSE: 6.0
[2]; Rate 0.1250 kg/ha
  herbicidal effect rating, CYPSE: 8.0
[2]; Rate 0.2500 kg/ha
  herbicidal effect rating, CYPSE: 8.0
[2]; Rate 0.5000 kg/ha
  herbicidal effect rating, CYPSE: 9.0
[3]; Rate 0.0320 kg/ha
  herbicidal effect rating, CYPIR: 4.0
[3]; Rate 0.0620 kg/ha
  herbicidal effect rating, CYPIR: 6.0
[3]; Rate 0.1250 kg/ha
  herbicidal effect rating, CYPIR: 9.0
[3]; Rate 0.2500 kg/ha
  herbicidal effect rating, CYPIR: 9.0
[3]; Rate 0.5000 kg/ha
  herbicidal effect rating, CYPIR: 3.0
[4]; Rate 0.0320 kg/ha
  herbicidal effect rating, ECHORC: 1.6
[4]; Rate 0.0620 kg/ha
  herbicidal effect rating, ECHORC: 2.3
[4]; Rate 0.1250 kg/ha
  herbicidal effect rating, ECHORC: 4.6
[4]; Rate 0.2500 kg/ha
  herbicidal effect rating, ECHORC: 9.0
[4]; Rate 0.5000 kg/ha
  herbicidal effect rating, ECHORC: 9.0
[5]; Rate 0.0320 kg/ha
  herbicidal effect rating, MOOVA: 9.0
[5]; Rate 0.0620 kg/ha
  herbicidal effect rating, MOOVA: 9.0
[5]; Rate 0.1250 kg/ha
  herbicidal effect rating, MOOVA: 9.0
[5]; Rate 0.2500 kg/ha
  herbicidal effect rating, MOOVA: 9.0
[5]; Rate 0.5000 kg/ha
  herbicidal effect rating, MOOVA: 9.0
[6]; Rate 0.0320 kg/ha
  herbicidal effect rating ORYSAT: 6.0
[6]; Rate 0.0620 kg/ha
  herbicidal effect rating ORYSAT: 6.0
[6]; Rate 0.1250 kg/ha
  herbicidal effect rating ORYSAT: 8.0
[6]; Rate 0.2500 kg/ha
  herbicidal effect rating ORYSAT: 9.0
[6]; Rate 0.5000 kg/ha
  herbicidal effect rating ORYSAT: 3.0
